Columns and labels:
Type in all cases: in vivo
[1] = system: redroot pigweed (Amaranthus retroflexus, AMARE); assay: Post-emerge test, greenhouse herbicide activity screening; details: post-emerge, 14 days after application, rating scale 0-100
Outline: (§1)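 Rating: 0–100 visual injury, 14 DAA. Application: acetone, 187 l/ha, 15–1000 g ai/ha, flat-fan track sprayer with nozzle 40–45 cm above soil or canopy. Post-emerge runs used 0.25% v/v surfactant on 2–3 leaf plants.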

[2] = system: sicklepod (Cassia obtusifolia, CASOB); assay: as above; details: post-emerge, 14 days after application, rating scale 0-100
Outline: as §1

[3] = system: large crabgrass (Digitaria sanguinalis, DIGSA); assay: as above; details: post-emerge, 14 days after application, rating scale 0-100
Outline: as §1

[4] = system: velvetleaf (Abutilon theophrasti, ABUTH); assay: as above; details: post-emerge, 14 days after application, rating scale 0-100
Outline: as §1

[5] = system: barnyardgrass (Echinochloa crus-galli, ECHCG); assay: as above; details: post-emerge, 14 days after application, rating scale 0-100
Outline: as §1

[6] = system: green foxtail (Setaria viridis, SETVI); assay: as above; details: post-emerge, 14 days after application, rating scale 0-100
Outline: as §1

[7] = system: ivyleaf morningglory (Ipomoea hederacea, IPOHE); assay: as above; details: post-emerge, 14 days after application, rating scale 0-100
Outline: as §1

[8] = system: lambsquarters (Chenopodium album, CHEAL); assay: as above; details: post-emerge, 14 days after application, rating scale 0-100
Outline: as §1

[9] = system: johnsongrass (Sorghum halepense, SORHA); assay: as above; details: post-emerge, 14 days after application, rating scale 0-100
Outline: as §1

[10] = system: common ragweed (Ambrosia artemisizfolia L., AMBEL); assay: as above; details: post-emerge, 14 days after application, rating scale 0-100
Outline: as §1

[11] = system: sicklepod (Cassia obtusifolia, CASOB); assay: Pre-emerge test, greenhouse herbicide activity screening; details: rated 14 days after application, 0 = no damage, 100 = complete death
Outline: as §1

[12] = system: large crabgrass (Digitaria sanguinalis, DIGSA); assay: as above; details: rated 14 days after application, 0 = no damage, 100 = complete death
Outline: as §1

[13] = system: velvetleaf (Abutilon theophrasti, ABUTH); assay: as above; details: rated 14 days after application, 0 = no damage, 100 = complete death
Outline: as §1

[14] = system: barnyardgrass (Echinochloa crus-galli, ECHCG); assay: as above; details: rated 14 days after application, 0 = no damage, 100 = complete death
Outline: as §1

[15] = system: green foxtail (Setaria viridis, SETVI); assay: as above; details: rated 14 days after application, 0 = no damage, 100 = complete death
Outline: as §1

[16] = system: ivyleaf morningglory (Ipomoea hederacea, IPOHE); assay: as above; details: rated 14 days after application, 0 = no damage, 100 = complete death
Outline: as §1

[17] = system: lambsquarters (Chenopodium album, CHEAL); assay: as above; details: rated 14 days after application, 0 = no damage, 100 = complete death
Outline: as §1

[18] = system: johnsongrass (Sorghum halepense, SORHA); assay: as above; details: rated 14 days after application, 0 = no damage, 100 = complete death
Outline: as §1

[19] = system: common ragweed (Ambrosia artemisizfolia L., AMBEL); assay: as above; details: rated 14 days after application, 0 = no damage, 100 = complete death
Outline: as §1

[20] = system: upland rice (Oryza sp., var. Tebonnet, RICE); assay: Pre-emerge test, crop safety; details: rated 14 days after application, 0 = no damage, 100 = complete death
Outline: (§2)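 Plants grown in 10 cm pots of sandy loam mix received acetone-dissolved compounds through a moving flat-fan nozzle. Doses ranged from 15 to 1000 g ai/ha. Pre-emerge pots were seeded one day earlier, post-emerge pots 8–21 days earlier. Fourteen days on, each pot was graded 0–100 for damage.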

[21] = system: field corn (Zea mays L., var. Dekalb 535, CORN); assay: Pre-emerge test, crop safety; details: rated 14 days after application, 0 = no damage, 100 = complete death
Outline: as §2

[22] = system: upland rice (Oryza sp., var. Tebonnet, RICE); assay: Post-emerge test, crop safety; details: post-emerge, 14 days after application, rating scale 0-100
Outline: as §2

[23] = system: field corn (Zea mays L., var. Dekalb 535, CORN); assay: Post-emerge test, crop safety; details: post-emerge, 14 days after application, rating scale 0-100
Outline: as §2

[24] = system: redroot pigweed (Amaranthus retroflexus, AMARE); assay: Pre-emerge test, greenhouse herbicide activity screening; details: rated 14 days after application, 0 = no damage, 100 = complete death
Outline: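 Compounds in acetone were track-sprayed at 187 l/ha, 15–1000 g ai/ha, onto sandy loam pots. Pre-emerge seeds were sown one day before spraying, with surface watering afterwards. Post-emerge plants were at the 2–3 leaf stage and sprayed with 0.25% v/v non-ionic surfactant. Injury was rated 0–100 at 14 days.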

COc1c(Cl)cc(F)c(-n2c(=O)cc(C(F)(F)F)n(C)c2=O)c1NC(=O)c1ccc(Cl)cc1 [2-56]
phytotoxicity rating AMARE ([1]; 63 g ai/ha): 100
phytotoxicity rating AMARE ([1]; 250 g ai/ha): 100
phytotoxicity rating CASOB ([2]; 63 g ai/ha): 100
phytotoxicity rating CASOB ([2]; 250 g ai/ha): 100
phytotoxicity rating DIGSA ([3]; 63 g ai/ha): 0
phytotoxicity rating DIGSA ([3]; 250 g ai/ha): 30
phytotoxicity rating ABUTH ([4]; 63 g ai/ha): 100
phytotoxicity rating ABUTH ([4]; 250 g ai/ha): 100
phytotoxicity rating ECHCG ([5]; 63 g ai/ha): 0
phytotoxicity rating ECHCG ([5]; 250 g ai/ha): 50
phytotoxicity rating SETVI ([6]; 63 g ai/ha): 80
phytotoxicity rating SETVI ([6]; 250 g ai/ha): 60
phytotoxicity rating IPOHE ([7]; 63 g ai/ha): 100
phytotoxicity rating IPOHE ([7]; 250 g ai/ha): 100
phytotoxicity rating CHEAL ([8]; 63 g ai/ha): 100
phytotoxicity rating CHEAL ([8]; 250 g ai/ha): 100
phytotoxicity rating SORHA ([9]; 63 g ai/ha): 0
phytotoxicity rating SORHA ([9]; 250 g ai/ha): 60
phytotoxicity rating AMBEL ([10]; 63 g ai/ha): 70
phytotoxicity rating AMBEL ([10]; 250 g ai/ha): 100
Pre-emerge Herbicidal Activity, phytotoxicity rating (0-100), CASOB ([11]; 63 g ai/ha): 100
Pre-emerge Herbicidal Activity, phytotoxicity rating (0-100), CASOB ([11]; 250 g ai/ha): 100
Pre-emerge Herbicidal Activity, phytotoxicity rating (0-100), DIGSA ([12]; 63 g ai/ha): 100
Pre-emerge Herbicidal Activity, phytotoxicity rating (0-100), DIGSA ([12]; 250 g ai/ha): 100
Pre-emerge Herbicidal Activity, phytotoxicity rating (0-100), ABUTH ([13]; 63 g ai/ha): 100
Pre-emerge Herbicidal Activity, phytotoxicity rating (0-100), ABUTH ([13]; 250 g ai/ha): 100
Pre-emerge Herbicidal Activity, phytotoxicity rating (0-100), ECHCG ([14]; 63 g ai/ha): 90
Pre-emerge Herbicidal Activity, phytotoxicity rating (0-100), ECHCG ([14]; 250 g ai/ha): 100
Pre-emerge Herbicidal Activity, phytotoxicity rating (0-100), SETVI ([15]; 63 g ai/ha): 100
Pre-emerge Herbicidal Activity, phytotoxicity rating (0-100), SETVI ([15]; 250 g ai/ha): 100
Pre-emerge Herbicidal Activity, phytotoxicity rating (0-100), IPOHE ([16]; 63 g ai/ha): 100
Pre-emerge Herbicidal Activity, phytotoxicity rating (0-100), IPOHE ([16]; 250 g ai/ha): 100
Pre-emerge Herbicidal Activity, phytotoxicity rating (0-100), CHEAL ([17]; 63 g ai/ha): 100
Pre-emerge Herbicidal Activity, phytotoxicity rating (0-100), CHEAL ([17]; 250 g ai/ha): 100
Pre-emerge Herbicidal Activity, phytotoxicity rating (0-100), SORHA ([18]; 63 g ai/ha): 99
Pre-emerge Herbicidal Activity, phytotoxicity rating (0-100), SORHA ([18]; 250 g ai/ha): 100
Pre-emerge Herbicidal Activity, phytotoxicity rating (0-100), AMBEL ([19]; 63 g ai/ha): 100
Pre-emerge Herbicidal Activity, phytotoxicity rating (0-100), AMBEL ([19]; 250 g ai/ha): 100
Pre-emerge phytotoxicity rating (0-100), crop damage, RICE ([20]; 63 g ai/ha): 30
Pre-emerge phytotoxicity rating (0-100), crop damage, RICE ([20]; 250 g ai/ha): 95
Pre-emerge phytotoxicity rating (0-100), crop damage, CORN ([21]; 63 g ai/ha): 80
Pre-emerge phytotoxicity rating (0-100), crop damage, CORN ([21]; 250 g ai/ha): 95
phytotoxicity rating RICE ([22]; 63 g ai/ha): 45
phytotoxicity rating RICE ([22]; 250 g ai/ha): 90
phytotoxicity rating CORN ([23]; 63 g ai/ha): 30
phytotoxicity rating CORN ([23]; 250 g ai/ha): 80
Pre-emerge Herbicidal Activity, phytotoxicity rating (0-100), AMARE ([24]; 63 g ai/ha): 100
Pre-emerge Herbicidal Activity, phytotoxicity rating (0-100), AMARE ([24]; 250 g ai/ha): 100

COc1c(Cl)cc(F)c(-n2c(=O)cc(C(F)(F)F)n(C)c2=O)c1NC(=O)c1ccc(Cl)cc1Cl [2-58]
phytotoxicity rating AMARE ([1]; 63 g ai/ha): 100
phytotoxicity rating AMARE ([1]; 250 g ai/ha): 100
phytotoxicity rating CASOB ([2]; 63 g ai/ha): 100
phytotoxicity rating CASOB ([2]; 250 g ai/ha): 100
phytotoxicity rating DIGSA ([3]; 63 g ai/ha): 10
phytotoxicity rating DIGSA ([3]; 250 g ai/ha): 40
phytotoxicity rating ABUTH ([4]; 63 g ai/ha): 100
phytotoxicity rating ABUTH ([4]; 250 g ai/ha): 100
phytotoxicity rating ECHCG ([5]; 63 g ai/ha): 20
phytotoxicity rating ECHCG ([5]; 250 g ai/ha): 90
phytotoxicity rating SETVI ([6]; 63 g ai/ha): 50
phytotoxicity rating SETVI ([6]; 250 g ai/ha): 60
phytotoxicity rating IPOHE ([7]; 63 g ai/ha): 95
phytotoxicity rating IPOHE ([7]; 250 g ai/ha): 100
phytotoxicity rating CHEAL ([8]; 63 g ai/ha): 100
phytotoxicity rating CHEAL ([8]; 250 g ai/ha): 100
phytotoxicity rating SORHA ([9]; 63 g ai/ha): 20
phytotoxicity rating SORHA ([9]; 250 g ai/ha): 90
phytotoxicity rating AMBEL ([10]; 63 g ai/ha): 100
phytotoxicity rating AMBEL ([10]; 250 g ai/ha): 100
Pre-emerge Herbicidal Activity, phytotoxicity rating (0-100), CASOB ([11]; 63 g ai/ha): 30
Pre-emerge Herbicidal Activity, phytotoxicity rating (0-100), CASOB ([11]; 250 g ai/ha): 99
Pre-emerge Herbicidal Activity, phytotoxicity rating (0-100), DIGSA ([12]; 63 g ai/ha): 90
Pre-emerge Herbicidal Activity, phytotoxicity rating (0-100), DIGSA ([12]; 250 g ai/ha): 100
Pre-emerge Herbicidal Activity, phytotoxicity rating (0-100), ABUTH ([13]; 63 g ai/ha): 100
Pre-emerge Herbicidal Activity, phytotoxicity rating (0-100), ABUTH ([13]; 250 g ai/ha): 100
Pre-emerge Herbicidal Activity, phytotoxicity rating (0-100), ECHCG ([14]; 63 g ai/ha): 50
Pre-emerge Herbicidal Activity, phytotoxicity rating (0-100), ECHCG ([14]; 250 g ai/ha): 100
Pre-emerge Herbicidal Activity, phytotoxicity rating (0-100), SETVI ([15]; 63 g ai/ha): 100
Pre-emerge Herbicidal Activity, phytotoxicity rating (0-100), SETVI ([15]; 250 g ai/ha): 100
Pre-emerge Herbicidal Activity, phytotoxicity rating (0-100), IPOHE ([16]; 63 g ai/ha): 20
Pre-emerge Herbicidal Activity, phytotoxicity rating (0-100), IPOHE ([16]; 250 g ai/ha): 100
Pre-emerge Herbicidal Activity, phytotoxicity rating (0-100), CHEAL ([17]; 63 g ai/ha): 100
Pre-emerge Herbicidal Activity, phytotoxicity rating (0-100), CHEAL ([17]; 250 g ai/ha): 100
Pre-emerge Herbicidal Activity, phytotoxicity rating (0-100), SORHA ([18]; 63 g ai/ha): 70
Pre-emerge Herbicidal Activity, phytotoxicity rating (0-100), SORHA ([18]; 250 g ai/ha): 100
Pre-emerge Herbicidal Activity, phytotoxicity rating (0-100), AMBEL ([19]; 63 g ai/ha): 50
Pre-emerge Herbicidal Activity, phytotoxicity rating (0-100), AMBEL ([19]; 250 g ai/ha): 100
Pre-emerge phytotoxicity rating (0-100), crop damage, RICE ([20]; 63 g ai/ha): 80
Pre-emerge phytotoxicity rating (0-100), crop damage, RICE ([20]; 250 g ai/ha): 95
Pre-emerge phytotoxicity rating (0-100), crop damage, CORN ([21]; 63 g ai/ha): 40
Pre-emerge phytotoxicity rating (0-100), crop damage, CORN ([21]; 250 g ai/ha): 95
phytotoxicity rating RICE ([22]; 63 g ai/ha): 50
phytotoxicity rating RICE ([22]; 250 g ai/ha): 85
phytotoxicity rating CORN ([23]; 63 g ai/ha): 40
phytotoxicity rating CORN ([23]; 250 g ai/ha): 90
Pre-emerge Herbicidal Activity, phytotoxicity rating (0-100), AMARE ([24]; 63 g ai/ha): 100
Pre-emerge Herbicidal Activity, phytotoxicity rating (0-100), AMARE ([24]; 250 g ai/ha): 100
